# Patent US20200352976A1, “HYPOMETHYLATING AGENTS FOR USE IN TREATMENT OF CANCER” (Otsuka Pharmaceutical Co., Ltd, priority 2019, published 2020)
# “And” between values parts separate entries of the source, which are not always exact repeats. Equal entries are not always repeated.
# Tested on: treatment naïve acute myeloid leukemia (TN-AML)
# Experiment: Phase 3 randomized trial Compound I-1 vs treatment choice: CR, OS, PFS, EFS, subgroup analyses
# Assay type: in vivo, human
# Settings: for EFS HR (95% CI) / PFS HR (95% CI): Compound I-1/TC
# Method: A Phase 3 randomized trial comparing Compound I-1 to a treatment choice of azacitidine, decitabine, or Low Dose Ara-C(LDAC) in patients with AML was performed.
# The patients were randomized 1:1 to either Compound I-1 (60 mg/m^2/d subcutaneous injection for 5 days of a 28-day cycle), or a preselected treatment choice of azacitidine, decitabine, or LDAC at standard doses. AML diagnosis and response status were assessed by an independent blinded central pathologist. CR and OS were the co-primary endpoints.
# Compound I-1 powder was reconstituted at a concentration of 100 mg/mL and administered subcutaneously (SC) at a dose of 60 mg/m^2 daily on days 1-5 of a 28-day cycle.
# LDAC was given at a dose of 20 mg SC twice daily (BID) on days 1-10 of a 28-day cycle. Decitabine was given at a dose of 20 mg/m^2 as a 1-hour intravenous (IV) infusion on days 1-5 of a 28-day cycle. Azacitidine was given IV or SC daily on days 1-7 of a 28-day cycle at a dose of 75 mg/m^2. Other TC treatment parameters such as dose adjustment guidelines followed locally approved prescribing information and institutional standard practice.
# Two co-primary endpoints were used: complete response (CR) rate based on modified International Working Group (IWG) 2003 AML Response Criteria and OS (the number of days from randomization to death). Secondary endpoints included CRc (CR+CR with incomplete blood count recovery [CRi]+CR with incomplete platelet recovery [CRp]) rate, number of days alive and out of the hospital (NDAOH), progression-free survival (PFS), health related quality of life (QOL) by EQ-5D (consisting of the EQ-5D-5L descriptive system and the EQ Visual Analogue Scale [EQ VAS]), duration of CR (the time from first CR to time of relapse), incidence and severity of adverse events (AEs), and 30- and 60-day all-cause mortality.
# CR rate was compared between Compound I-1 and TC groups using Cochran Mantel-Haenszel test at an alpha of 0.04, stratified by the stratification factors used at randomization. OS curves were estimated using Kaplan-Meier (K-M) method and formally compared between Compound I-1 and TC groups using a 2-sided stratified log-rank test, stratified by the same stratification factors used at randomization. Sensitivity analyses were conducted for CR rate and OS to evaluate the robustness of the treatment effect.
# CRc rate was compared between treatment groups using a Cochran Mantel-Haenszel test with the same stratification variable as for CR and OS. NDAOH was compared between treatment groups using an analysis of variance model (ANOVA) with stratification variables used as fixed factors. PFS was compared between treatment groups using a stratified log-rank test.
# The number of RBC and platelet transfusions up to Day 180 were summarized descriptively. 95% CI of the mean was also provided. The EQ-5D-5L index values and EQ VAS up to Day 180 were analyzed descriptively and using a mixed model approach for repeated measures.
# Data obtained during the trial of EXAMPLE 4 were further analyzed for selected subgroups of patients including patients who achieved CR in patients who received at least 4 or 6 treatment cycles.
# TN-AML patients ineligible for intensive chemotherapy (IC) due to age ≥75 y, coexisting morbidities, or ECOG PS 2-3 were randomized 1:1 to either Compound I-1 (60 mg/m^2/d SC for 5-days Q28 days) or a preselected treatment choice (TC) of azacitidine (AZA), decitabine (DEC), or low-dose Ara-C(LDAC) at the prescribed dosing schedule. AML diagnosis and response status were assessed by an independent central pathologist blinded to randomization assignment. Complete response (CR) and overall survival (OS) were the co-primary endpoints. The patients' characteristics, number of treatment cycles, reasons for treatment discontinuation, CR, and OS including analyses by number of cycles received including prospective subgroups, and OS analyses of responders and non-responders were analyzed. […]
# [1] = number of days alive and out of the hospital
# [2] = patients with at least 4 cycles
# [3] = patients with at least 4 cycles (n = 476)
# [4] = patients with at least 6 cycles
# [5] = patients with at least 6 cycles (n = 375)
smiles,measurement,setting,value
Nc1ncn([C@H]2CC(OP(=O)(O)OC[C@H]3O[C@@H](n4cnc5c(=O)[nH]c(N)nc54)CC3O)[C@@H](CO)O2)c(=O)n1 (stereo partly shown) [Compound I-1],CR odds ratio (logistic regression),Compound I-1 vs TC,1.14
same,CR rate Treatment Difference,Compound I-1 vs TC,1.92%
same,CRc rate Treatment Difference,Compound I-1 vs TC,0.39
same,NDAOH LS Mean Treatment Difference,Compound I-1 vs TC,−7.8
same,Overall survival hazard ratio,Compound I-1 vs each treatment choice,less than 1
same,12-month survival rate,ITT,37%
same,24-month survival rate,ITT,18%
same,Median PFS,ITT,5.3 months
same,"Overall Survival K-M Estimate, 25th percentile",ITT,71.0 days
same,"Overall Survival K-M Estimate, 75th percentile",ITT,584.0 days
same,"Overall Survival K-M Estimate, Median",ITT,213 days and 213.0 days
same,"PFS K-M Estimate, Median",ITT,159 days
same,"Survival, 75th percentile",ITT,19.5 months
same,Median EFS,ITT Population (n = 815),5.1 months
same,Median OS,ITT Population (n = 815),7.1 months
same,EFS HR (95% CI),ITT Population,"0.85 (0.74-0.98), p 0.02"
same,PFS HR,"ITT, Compound I-1 vs TC","0.99 (0.86-1.15), p 0.93"
same,12-month survival rate,"ITT, as fraction",0.37
same,24-month survival rate,"ITT, as fraction",0.18
same,CRc (CR + CRi + CRp),"ITT, N = 408 / 407",93 subjects
same,Complete Response (CR),"ITT, N = 408 Compound I-1, N = 407 TC",79 subjects
same,Overall survival hazard ratio,"baseline TP53 mutations (94 patients), Compound I-1 vs treatment choice",1.8
same,Median duration of CR,complete responders,7.2 months
same,EQ VAS LS mean change from baseline,first 6 months,0.87
same,"Platelet transfusions, mean",first 6 months,12.5 units
same,"RBC transfusions, mean",first 6 months,16.2 units
same,Index EQ-5D-5L score LS mean difference,"first 6 months, Compound I-1 vs TC",−0.019
same,Mean NDAOH over 6 months,in vivo,3.3 months
same,NDAOH per patient-year rate,in vivo,297 days
same,One-year survival rate,"landmark analysis (approximately 4 months), at least 4 cycles",51%
same,Overall survival hazard ratio,"landmark analysis, greater than 3 treatment cycles, Compound I-1 vs TC",0.78
same,Treatment Discontinuation Before 4 Cycles: Progressive Disease,"n = 408 I-1, n = 407 TC",7.6%
same,Treatment Discontinuation Before 6 Cycles: Progressive Disease,"n = 408 I-1, n = 407 TC",10.8%
same,OS HR,"non-responders, at least 6 cycles, Compound I-1 vs TC",0.73
same,"NDAOH in First 6 Months, LS Mean",[1],98.9
same,"NDAOH in First 6 Months, Mean",[1],98.1
same,Median EFS,"patients who achieved an objective response (CR, CRp, CRi, or PR)",17.4 m
same,EFS HR,"patients who achieved an objective response, Compound I-1 vs TC",0.68
same,Median OS,[2],15.6 months
same,CR Rate,patients with at least 4 cycles (n = 235 I-1; n = 241 TC),33.6%
same,Median EFS,[3],12.1 months
same,Median PFS,[3],10.3 months
same,EFS HR (95% CI),[2],"0.74 (0.61-0.9), p 0.002"
same,PFS HR (95% CI),[2],"0.88 (0.73-1.06), p 0.17"
same,OS HR (95% CI),"patients with at least 4 cycles, Compound I-1 vs TC","0.78 (0.64, 0.96), p 0.02 and 0.78 (0.64-0.96), p 0.02"
same,Median OS,[4],19.5 months
same,CR Rate,patients with at least 6 cycles (n = 187 I-1; n = 188 TC),40.1%
same,Median EFS,[5],14.9 months
same,Median PFS,[5],11.9 months
same,EFS HR (95% CI),[4],"0.69 (0.56-0.86), p 0.001"
same,PFS HR (95% CI),[4],"0.86 (0.7-1.07), p 0.17"
same,OS HR (95% CI),"patients with at least 6 cycles, Compound I-1 vs TC","0.69 (0.54, 0.88), p 0.002 and 0.69 (0.54-0.88), p 0.002"
same,OS HR,"responders (CR, CRp, CRi, or PR), at least 6 cycles, Compound I-1 vs TC",0.66
same,OS HR,"subjects who achieved any CR (CR, CRp, or CRi), Compound I-1 vs TC, post hoc",0.72
same,Overall survival hazard ratio,"without TP53 mutations (696 patients), Compound I-1 vs treatment choice",0.86
